Measurements: PubChem BioAssay AID330 (DTP/NCI, 2004)
“And” between values parts separate entries of the source, which are not always exact repeats. Equal entries are not always repeated. Inconclusive results and toxic doses are left out.

Tested on: P388 leukemia ip, CD2F1 mice, survival T/C
Experiment: NCI In Vivo Anticancer Drug Screen. Data for tumor model P388 Leukemia (intraperitoneal) in CD2F1 (CDF1) mice
Conditions: endpoint: median survival time, higher = longer survival
Method in brief: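 Mice carrying the transplanted tumor received test compound or vehicle. Survival was recorded in each group, and the value is the treated-group measurement divided by that of the vehicle-treated control group.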

[1] = dose: 25.0 mg/kg/injection, schedule: Q01DX009 (ip), vehicle: saline with Tween-80
[2] = dose: 50.0 mg/kg/injection, schedule: Q01DX009 (ip), vehicle: saline with Tween-80
[3] = dose: 100.0 mg/kg/injection, schedule: Q01DX009 (ip), vehicle: saline with Tween-80
[4] = dose: 25.0 mg/kg/injection, schedule: Q01DX005 (ip), vehicle: saline with Tween-80
[5] = dose: 50.0 mg/kg/injection, schedule: Q01DX005 (ip), vehicle: saline with Tween-80
[6] = dose: 100.0 mg/kg/injection, schedule: Q01DX005 (ip), vehicle: saline with Tween-80
[7] = dose: 200.0 mg/kg/injection, schedule: Q01DX005 (ip), vehicle: saline with Tween-80
[8] = dose: 50.0 mg/kg/injection, schedule: Q01DX009 (ip), vehicle: saline
[9] = dose: 200.0 mg/kg/injection, schedule: Q01DX009 (ip), vehicle: saline with Tween-80
[10] = dose: 50.0 mg/kg/injection, schedule: Q01DX005 (ip), vehicle: Klucel (hydroxypropylcellulose) (HPC)
[11] = dose: 100.0 mg/kg/injection, schedule: Q01DX005 (ip), vehicle: Klucel (hydroxypropylcellulose) (HPC)
[12] = dose: 200.0 mg/kg/injection, schedule: Q01DX005 (ip), vehicle: Klucel (hydroxypropylcellulose) (HPC)
[13] = dose: 100.0 mg/kg/injection, schedule: Q01DX009 (ip), vehicle: saline
[14] = dose: 200.0 mg/kg/injection, schedule: Q01DX009 (ip), vehicle: saline
[15] = dose: 60.0 mg/kg/injection, schedule: Q01DX005 (ip), vehicle: saline with Tween-80
[16] = dose: 25.0 mg/kg/injection, schedule: Q01DX005 (ip), vehicle: Klucel (hydroxypropylcellulose) (HPC)

In the case of `CSC(C(C)=O)c1ccccc1` (stereo unspecified), the T/C [1] is reported as 100 % of control, the T/C [2] is reported as 100 % of control and the T/C [3] is reported as 104 % of control.

With `CNC(=O)OCc1c(COC(=O)NC)c2n(c1C)CS(=O)C2` (stereo unspecified) the T/C [4] was 113 % of control, the T/C [5] was 113 % of control and the T/C [6] was 121 % of control and 122 % of control. For the same molecule, the T/C [7] was 113 % of control and 115 % of control.

In the case of `CCC#CC(=O)O`, the T/C (dose: 25.0 mg/kg/injection, schedule: Q01DX009 (ip), vehicle: saline) is reported as 96 % of control and the T/C [8] is reported as 95 % of control and 96 % of control.

With `CCCC1OCC(CC)C(CCC)O1` (stereo unspecified) the T/C [3] was 100 % of control, the T/C (dose: 100.0 mg/kg/injection, schedule: Q04DX003 (ip), vehicle: saline sonified) was 100 % of control and the T/C [9] was 100 % of control. The T/C (dose: 200.0 mg/kg/injection, schedule: Q04DX003 (ip), vehicle: saline sonified) was 109 % of control, the T/C (dose: 400.0 mg/kg/injection, schedule: Q01DX009 (ip), vehicle: saline with Tween-80) was 91 % of control and the T/C (dose: 400.0 mg/kg/injection, schedule: Q04DX003 (ip), vehicle: saline sonified) was 109 % of control.

`O=C1N/C(=N\c2nc3ccccc3s2)c2ccccc21` was tested, and the T/C (dose: 6.25 mg/kg/injection, schedule: Q01DX009 (ip), vehicle: saline with Tween-80) was 88 % of control, the T/C [1] was 91 % of control and the T/C [3] was 86 % of control. The T/C [9] was 89 % of control.

In the case of `Nc1cc2c(cc1Br)-c1ccccc1C2=O`, the T/C [2] is reported as 96 % of control, the T/C [3] is reported as 97 % of control and the T/C [9] is reported as 90 % of control.

In the case of `CCOc1ccc(C(C)c2cc3c(cc2OCC)OCO3)c(C)c1` (stereo unspecified), the T/C [10] is reported as 109 % of control, the T/C [11] is reported as 103 % of control and the T/C [12] is reported as 112 % of control.

In the case of `C=C(C)c1nc(N)nc(NC)n1`, the T/C (dose: 100.0 mg/kg/injection, schedule: Q04DX002 (ip), vehicle: Klucel (hydroxypropylcellulose) (HPC)) is reported as 98 % of control, the T/C (dose: 200.0 mg/kg/injection, schedule: Q04DX002 (ip), vehicle: Klucel (hydroxypropylcellulose) (HPC)) is reported as 107 % of control and the T/C (dose: 400.0 mg/kg/injection, schedule: Q04DX002 (ip), vehicle: Klucel (hydroxypropylcellulose) (HPC)) is reported as 98 % of control.

`CCOC(=O)c1nc(C(Br)(Br)Br)[nH]c(=O)c1C` was tested, and the T/C (dose: 6.25 mg/kg/injection, schedule: Q01DX009 (ip), vehicle: distilled water + Tween-80) was 102 % of control, the T/C (dose: 12.5 mg/kg/injection, schedule: Q01DX009 (ip), vehicle: distilled water + Tween-80) was 113 % of control and the T/C (dose: 25.0 mg/kg/injection, schedule: Q01DX009 (ip), vehicle: distilled water + Tween-80) was 116 % of control. The T/C (dose: 50.0 mg/kg/injection, schedule: Q01DX009 (ip), vehicle: distilled water + Tween-80) was 113 % of control and the T/C (dose: 100.0 mg/kg/injection, schedule: Q01DX009 (ip), vehicle: distilled water + Tween-80) was 113 % of control.

`CC(=O)C1C(=O)C=C(C)OC1=O.CC(=O)C1C(=O)C=C(C)OC1=O.[Hg]` (stereo unspecified) was tested, and the T/C (dose: 1.56 mg/kg/injection, schedule: Q01DX009 (ip), vehicle: Klucel (hydroxypropylcellulose) (HPC)) was 88 % of control, the T/C (dose: 3.12 mg/kg/injection, schedule: Q01DX009 (ip), vehicle: Klucel (hydroxypropylcellulose) (HPC)) was 101 % of control and the T/C (dose: 6.25 mg/kg/injection, schedule: Q01DX009 (ip), vehicle: Klucel (hydroxypropylcellulose) (HPC)) was 91 % of control and 93 % of control.

In the case of `CC(C)SC(=S)Nc1cc(C(F)(F)F)ccc1Cl`, the T/C [8] is reported as 100 % of control, the T/C [13] is reported as 101 % of control and the T/C [14] is reported as 99 % of control.

For `C=C[Se](=C(C#N)C#N)c1ccccc1` (stereo unspecified), the T/C (dose: 25.0 mg/kg/injection, schedule: Q04DX002 (ip), vehicle: saline) was 111 % of control, the T/C (dose: 50.0 mg/kg/injection, schedule: Q04DX002 (ip), vehicle: saline) was 104 % of control and the T/C (dose: 100.0 mg/kg/injection, schedule: Q04DX002 (ip), vehicle: saline) was 99 % of control and 101 % of control. The T/C (dose: 200.0 mg/kg/injection, schedule: Q04DX002 (ip), vehicle: saline) was 110 % of control and the T/C (dose: 400.0 mg/kg/injection, schedule: Q04DX002 (ip), vehicle: saline) was 118 % of control.

`Cc1ccc(-n2c(CSc3ccc(Cl)cc3)nnc2SCc2nc3ccccc3[nH]2)cc1` was tested, and the T/C (dose: 15.0 mg/kg/injection, schedule: Q01DX005 (ip), vehicle: saline with Tween-80) was 92 % of control, the T/C (dose: 30.0 mg/kg/injection, schedule: Q01DX005 (ip), vehicle: saline with Tween-80) was 102 % of control and the T/C [15] was 96 % of control and 98 % of control.

In the case of `CC12CC3CC(C)(C1)CC(OCCN)(C3)C2`, the T/C [15] is reported as 101 % of control and the T/C (dose: 120.0 mg/kg/injection, schedule: Q01DX005 (ip), vehicle: saline with Tween-80) is reported as 104 % of control.

In the case of `O=S(=O)(Cl)C(F)(F)C(F)(F)F`, the T/C [8] is reported as 100 % of control, the T/C [13] is reported as 110 % of control and the T/C [14] is reported as 103 % of control.

`O=c1ccc2cc3ccoc3c(OCCCCCCCCCCCCOc3c4occc4cc4ccc(=O)oc34)c2o1` was tested, and the T/C (dose: 6.25 mg/kg/injection, schedule: Q01DX005 (ip), vehicle: saline with Tween-80) was 100 % of control, the T/C (dose: 12.5 mg/kg/injection, schedule: Q01DX005 (ip), vehicle: saline with Tween-80) was 100 % of control and the T/C [4] was 88 % of control.

With `Cc1ccc(Nc2ccc(Nc3ccc(C)cc3)c3c2C(=O)c2cc(Cl)c(Cl)cc2C3=O)cc1` the T/C (dose: 50.0 mg/kg/injection, schedule: Q01DX009 (ip), vehicle: Klucel (hydroxypropylcellulose) (HPC)) was 101 % of control and 93 % of control and 95 % of control, the T/C (dose: 100.0 mg/kg/injection, schedule: Q01DX009 (ip), vehicle: Klucel (hydroxypropylcellulose) (HPC)) was 111 % of control and 89 % of control and 96 % of control and the T/C (dose: 200.0 mg/kg/injection, schedule: Q01DX009 (ip), vehicle: Klucel (hydroxypropylcellulose) (HPC)) was 103 % of control and 105 % of control. For the same molecule, the T/C (dose: 400.0 mg/kg/injection, schedule: Q01DX009 (ip), vehicle: Klucel (hydroxypropylcellulose) (HPC)) was 98 % of control.

In the case of `CO[C@H](/C(C)=C/C=C/C(C)=C/c1coc(C)n1)[C@H](C)[C@H]1C[C@@H](O)[C@@]2(C)O[C@H]2/C=C/[C@@H](C)[C@@H]2C[C@@H](CC(=O)O2)C[C@H]2O[C@@H]2C(=O)O1`, the T/C (dose: 0.1 mg/kg/injection, schedule: Q01DX005 (ip), vehicle: Klucel (hydroxypropylcellulose) (HPC)) is reported as 150 % of control, the T/C (dose: 0.12 mg/kg/injection, schedule: Q01DX005 (ip), vehicle: Klucel (hydroxypropylcellulose) (HPC)) is reported as 150 % of control and the T/C (dose: 0.14 mg/kg/injection, schedule: Q01DX005 (ip), vehicle: Klucel (hydroxypropylcellulose) (HPC)) is reported as 152 % of control and 160 % of control. For the same molecule, the T/C (dose: 0.18 mg/kg/injection, schedule: Q01DX005 (ip), vehicle: Klucel (hydroxypropylcellulose) (HPC)) was 160 % of control, the T/C (dose: 0.24 mg/kg/injection, schedule: Q01DX005 (ip), vehicle: Klucel (hydroxypropylcellulose) (HPC)) was 166 % of control and the T/C (dose: 0.45 mg/kg/injection, schedule: Q01DX005 (ip), vehicle: Klucel (hydroxypropylcellulose) (HPC)) was 171 % of control and 184 % of control and 195 % of control. The T/C (dose: 0.67 mg/kg/injection, schedule: Q01DX005 (ip), vehicle: Klucel (hydroxypropylcellulose) (HPC)) was 181 % of control and 191 % of control, the T/C (dose: 10.0 micrograms/kg/injection, schedule: Q01DX005 (ip), vehicle: Klucel (hydroxypropylcellulose) (HPC)) was 104 % of control and the T/C (dose: 20.0 micrograms/kg/injection, schedule: Q01DX005 (ip), vehicle: Klucel (hydroxypropylcellulose) (HPC)) was 109 % of control and 123 % of control. For the same molecule, the T/C (dose: 80.0 micrograms/kg/injection, schedule: Q01DX005 (ip), vehicle: Klucel (hydroxypropylcellulose) (HPC)) was 163 % of control.

`CC(=O)NC1c2ccccc2CCC1OC(C)=O` (stereo unspecified) was tested, and the T/C [5] was 99 % of control, the T/C [6] was 99 % of control and the T/C [7] was 99 % of control.

For `CC1(C)N=C(N)N=C(N)N1c1ccc(Cl)cc1`, the T/C (dose: 12.5 mg/kg/injection, schedule: Q01DX005 (ip), vehicle: saline) was 103 % of control, the T/C (dose: 25.0 mg/kg/injection, schedule: Q01DX005 (ip), vehicle: saline) was 117 % of control and the T/C (dose: 50.0 mg/kg/injection, schedule: Q01DX005 (ip), vehicle: saline) was 124 % of control.

With `CC1=NN(C(C)(C)C)[Si](C)(C)C1` the T/C [16] was 96 % of control, the T/C [10] was 93 % of control and the T/C [11] was 97 % of control.

With `CCCCCCNc1nc(NCCCCCC)c2[nH]c(NCCCCCC)nc2n1` the T/C [5] was 122 % of control.

`CC(C)=NOc1ccc([N+](=O)[O-])cc1[N+](=O)[O-]` was tested, and the T/C [2] was 96 % of control and the T/C [3] was 108 % of control.

`COc1cc(/C=C/c2ccncc2)ccc1OC(C)=O` was tested, and the T/C [16] was 100 % of control, the T/C [10] was 100 % of control and the T/C [11] was 101 % of control. The T/C [12] was 100 % of control.

With `C=C(C[N+](C)(C)C)c1ccc([N+](=O)[O-])cc1` the T/C [10] was 102 % of control.
